Experimental data reported in paper PMC5473904, “Epigenetic and antitumor effects of platinum(IV)-octanoato conjugates” (Scientific Reports, 2017).

Legend:
[1] = tested on: A2780 human ovarian carcinoma cells; experiment: MTT cytotoxicity, 72 h; assay type: cell-based; details: for IC50: MTT, 72 h, platinum complexes
[2] = tested on: A2780cisR human ovarian carcinoma cells; experiment: MTT cytotoxicity, 72 h; assay type: cell-based; details: for RF, resistance factor: IC50 (resistant, A2780cisR)/IC50 (sensitive, A2780); for IC50: MTT, 72 h, platinum complexes
Method: (§1) Cytotoxic activity of the compounds tested in the present work was screened on the panel of malignant and nonmalignant cell lines using the colorimetric MTT assay and 72 h of drug incubation period.
(§2) Cell death was evaluated using a system based on the tetrazolium compound MTT [3-(4,5-dimethyl-2-thiazolyl)-2,5-diphenyl-2H-tetrazolium bromide]. The cells were seeded in 96-well tissue culture plates at a density of 10^4 A2780cisR, LNCaP, HSF cells/well, 3 × 10^3 CHO-K1 or 4 × 10^3 MCF7, HCT-116 and MRC5 pd30 cells/well in 100 μL of medium. After overnight incubation (16 h), the cells were treated with the compounds in a final volume of 200 μL/well. After additional 72 h, 10 μL of a freshly diluted MTT solution (2.5 mg mL^−1) was added to each well, and the plate was incubated at 37 °C in a humidified 5% CO2 atmosphere for 4 h. At the end of the incubation period, the medium was removed, and the formazan product was dissolved in 100 μL of DMSO. The cell viability was evaluated by measurement of the absorbance at 570 nm, using an Absorbance Reader SUNRISE TECAN SCHOELLER. IC50 values were calculated from curves constructed by plotting cell survival (%) versus drug concentration (μM). All experiments were made in triplicate. The reading values were converted to the percentage of control (% cell survival). Cytotoxic effects were expressed as IC50.

[3] = tested on: CHO-K1 Chinese hamster ovary cells; experiment: MTT cytotoxicity, 72 h; assay type: cell-based; details: platinum complexes
Method: as §1, §2

[4] = tested on: HCT-116 human colorectal carcinoma cells; experiment: MTT cytotoxicity, 72 h; assay type: cell-based; details: for IC50: MTT, 72 h, platinum complexes and decitabine
Method: as §1, §2

[5] = tested on: MCF-7 human breast cancer cells; experiment: MTT cytotoxicity, 72 h; assay type: cell-based; details: platinum complexes
Method: as §1, §2

PNT1a = experiment: MTT cytotoxicity, 72 h; assay type: cell-based; details: platinum complexes
A2780 cells = experiment: Cellular platinum accumulation/distribution by ICP-MS; assay type: cell-based, human; details: for Platinum in cytosol / Platinum in nucleus: A2780, 24 h; for Platinum in cytosol / Platinum in nucleus / Total cellular platinum accumulation: 0.35 µM; for Total cellular platinum accumulation: A2780, 24 h exposure
Method: (§3) Cellular concentrations of platinum were determined by inductively coupled plasma mass spectrometry (ICP-MS) after 24 h of exposure to the complexes at the concentration of 0.35 µM.
(§4) Cellular uptake studies were also carried out to measure the accumulation of platinum species in cytosol and nucleus. […] The platinum levels in each pool were measured by ICP-MS. The extent of accumulation of both OA conjugated Pt(IV) prodrugs into the cytosol and nucleus fractions was markedly higher than that of cisplatin or Pt(IV)diAc.
(§5) The cells were seeded in 150 cm^2 culture flasks at a density 1 × 10^7 cells/flask (67 000 cells/cm^2). After 48-h incubation, the cells were treated with the compounds (0.35 μM) for 24 h. The attached cells were washed twice with PBS (4 °C). Seventy-five percent of cells were used for analysis of platinum bound to DNA, remaining 25% were used for estimations of cellular accumulation of platinum. Cell pellets were digested by a high-pressure microwave digestion system (MARS5, CEM) with HCl to give a fully homogenized solution, and final platinum content was determined by ICP-MS. The analysis with the aid of ICP-MS was performed using Agilent 7500 (Agilent, Japan) or Thermo Optek X Series.
(§6) A2780 cells were seeded in 100 mm tissue culture dishes (3 × 10^6 cells) and grown for 48 h to 80–90% confluence. Cells were harvested after 24 h of treatment. Concretely, the dishes were washed two times with ice-cold PBS and the cells scraped into tubes and centrifuged for 10 min at 0 °C (200 g). The pellets were resuspended in the lysis buffer [Tris·HCl (10 mM, pH 8.0), KCl (60 mM), EDTA (1.2 mM), DTT (1 mM), phenylmethanesulfonyl fluoride (PMSF, 0.1 mM), NP-40 (0.04%)] for 10 min on ice and centrifuged for 4 min at 0 °C (800 g). Cytosolic fraction was separated for platinum ICP-MS analysis, and protein concentration was determined by Bradford assay. The pellets were rinsed with the above lysis buffer without PMSF and NP-40 and centrifuged for another 4 min at 0 °C (300 g). The pellets were resuspended in 50 µL nuclear extraction buffer [Tris·HCl (20 mM, pH 8.0), NaCl (420 mM), MgCl2 (0.7 mM), EDTA (0.25 mM), glycerol (25%)] and incubated for 30 min at 4 °C, continuously mixed on end-over-end roller, and then centrifuged for 15 min at 0 °C (13000 g). Protein concentration in nuclear extracts was determined by the Bradford assay, and stored at −80 °C until analysis.

HCT-116 cells [6] = experiment: as above; assay type: cell-based, human; details: for Total cellular platinum accumulation: HCT-116, 24 h exposure, 0.35 µM
Method: as §3, §4, §5, §6

[7] = tested on: DNMT enzymes in HCT-116 cells; experiment: DNMT activity in nuclear extracts of treated cells; assay type: cell-based, human; details: 24 h
Method: In these experiments, the total activity of DNMT enzymes was determined in nuclear extracts prepared from HCT-116 cells which were treated with the platinum compounds, free OA or decitabine for 24 h (Fig. 4B).
Human colon carcinoma cells (HCT-116) were seeded in 100 mm culture dishes at the density 1.5 × 10^6 cells/dish. Cells were harvested after 24 h of incubation with the compounds tested in the present work (1 µM). Nuclear extracts from the pellets were separated using EpiQuik Nuclear extraction kit I (Epigentek, NY) according to manufacturer’s instructions. Quantification of nuclear proteins was analyzed with the standard Bradford assay. The activity of DNMT enzymes was analyzed using the EpiQuik DNMT activity/inhibition assay Ultra kit (Epigentek, NY), according to the manufacturer´s protocol. Briefly, 10 µg of total nuclear protein was analyzed for its DNMT activity. The reaction time with a universal DNMT substrate stably coated onto microplate wells was 120 min at 37 °C. The final signal at the end of the ELISA reaction was detected at 450 nm (reference 620 nm). DNMT activity was normalized to controls and expressed in the percent or absolute values as OD h^−1 mg^−1, calculated as described in the manufacturer’s manual.

HCT-116 cells [8] = experiment: Cellular platinum accumulation/distribution by ICP-MS; assay type: cell-based, human; details: HCT-116, 24 h, 0.35 µM

SMILES	IC50 [1] [µM]	RF, resistance factor [2]	IC50 [2] [µM]	IC50 [3] [µM]	IC50 [4] [µM]	IC50 [5] [µM]	IC50 (PNT1a) [µM]	Platinum in cytosol (A2780 cells) [pg Pt/µg protein]	Platinum in nucleus (A2780 cells) [pg Pt/µg protein]	Total cellular platinum accumulation (A2780 cells) [ng Pt/10^6 cells]	Total cellular platinum accumulation (HCT-116 cells [6]) [ng Pt/10^6 cells]	Activity of DNMT enzymes ([7]; HCT-116, 1.0 µM)	Platinum in cytosol (HCT-116 cells [8]) [pg Pt/µg protein]	Platinum in nucleus (HCT-116 cells [8]) [pg Pt/µg protein]	also measured
CC(=O)[O][Pt]([NH2])([NH2])([Cl])([Cl])[O]C(C)=O [Pt(IV)diAc, cis, cis, trans-[Pt(IV)(NH3)2Cl2(Ac)2]]	5.3 ± 1	4.2	22 ± 3.1	14.5 ± 0.7	35.3 ± 1.4	51 ± 4	2.48 ± 0.1	3.0 ± 0.4	3.0 ± 0.5	0.45 ± 0.09	0.19 ± 0.04	no significant effect	2.1 ± 0.3	4.6 ± 0.5	
CCCCCCCC(=O)[O][Pt]([NH2])([NH2])([Cl])([Cl])[O]C(=O)CCCCCCC [Pt(IV)diOA, cis, cis, trans-[Pt(IV)(NH3)2Cl2(OA)2]]	0.041 ± 0.001	0.7	0.029 ± 0.002	0.14 ± 0.02	0.017 ± 0.003	0.038 ± 0.006	0.022 ± 0.001	138 ± 12	173 ± 15	12.9 ± 0.3	29.2 ± 0.3	enhanced activity of DNMT enzymes	59 ± 7	189 ± 9	Increase of cytotoxicity vs. cisplatin ([1]; A2780, Fig. 2A): 68 x; Increase of cytotoxicity vs. Pt(IV)diAc ([1]; A2780, Fig. 2C): 129 x; Increase of cytotoxicity vs. cisplatin ([4]; HCT-116, Fig. 2B): 347 x; Increase of cytotoxicity vs. Pt(IV)diAc ([4]; HCT-116, Fig. 2D): 2076 x; Increase of cellular accumulation vs. cisplatin (A2780 cells; A2780, Fig. 2A): 16 x; Increase of cellular accumulation vs. Pt(IV)diAc (A2780 cells; A2780, Fig. 2C): 29 x; Increase of cellular accumulation vs. cisplatin (HCT-116 cells [6]; HCT-116, Fig. 2B): 34 x; Increase of cellular accumulation vs. Pt(IV)diAc (HCT-116 cells [6]; HCT-116, Fig. 2D): 153 x; Activity of DNMT enzymes ([7]; HCT-116, 0.5 µM): enhanced activity of DNMT enzymes
N.N.[Cl][Pt][Cl] [cisplatin, reference compound]	2.8 ± 0.1	4.9	13.8 ± 0.1	19.9 ± 1	5.9 ± 0.9	17.4 ± 1.9	2.5 ± 0.32	5.5 ± 0.9	3.0 ± 0.7	0.8 ± 0.2	0.9 ± 0.1	no significant effect	3.6 ± 0.2	4.1 ± 0.3	Activity of DNMT enzymes ([7]; HCT-116, 30 µM): no significant effect
